Test results published in article PMC6236315 (Molecular Medicine Reports, 2018).
Counter-ions that a name gives are not always drawn.

Tests used:
[1] = tested on: LAD2 mast cells; assay: LL-37 internalization into LAD2 cells; format: cell-based, human; conditions: 37°C
[2] = tested on: LAD2 mast cells; assay: β-Hexosaminidase release; format: cell-based, human; conditions: 37°C
[3] = chlorpromazine 2.5 µM, 30 min pre-treatment, then LL-37 5 µM, 40 min
[4] = genistein 10 µM, 30 min pre-treatment, then LL-37 5 µM, 40 min
[5] = pertussis toxin 250 ng/ml, 1 h pre-treatment, then LL-37 5 µM for 40 min

Compound: CN(C)CCCN1c2ccccc2Sc2ccc(Cl)cc21 [chlorpromazine, Chlorpromazine hydrochloride]
- effect on LL-37 internalization (fluorescence intensity) [1, 3]: suppressed LL-37 internalization
- effect on LL-37-induced degranulation (β-hexosaminidase release) [2, 3]: inhibited degranulation

Compound: O=C(N/N=C/c1ccc(O)c(O)c1)c1cc2ccccc2cc1O [dynasore, Dynasore]
- effect on LL-37-induced degranulation (β-hexosaminidase release) ([2]; dynasore 10 µM, 30 min pre-treatment, then LL-37 5 µM, 40 min): inhibited degranulation

Compound: O=c1c(-c2ccc(O)cc2)coc2cc(O)cc(O)c12 [genistein]
- effect on LL-37 internalization (fluorescence intensity) [1, 4]: did not affect
- effect on LL-37-induced degranulation (β-hexosaminidase release) [2, 4]: did not affect

Compound: pertussis toxin
- effect on LL-37 internalization (fluorescence intensity) [1, 5]: significantly suppressed
- effect on LL-37-induced degranulation (β-hexosaminidase release) [2, 5]: significantly suppressed
